Reference: PubChem BioAssay (NCI)
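Growth conditions: 96-well plates. Treatment: test compound, 48 hours, 5 concentrations. Analysis: linear interpolation between bracketing concentrations; unreached endpoints set to highest concentration. At the GI50, growth is halved. TGI: concentration producing complete growth inhibition.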

Key:
Test in all cases: NCI anticancer screen, dose series, 48 h
786-0 renal = test system: 786-0 renal
ACHN renal = test system: ACHN renal
COLO 205 colon = test system: COLO 205 colon
EKVX NSCLC = test system: EKVX NSCLC
HT29 colon = test system: HT29 colon
M14 melanoma = test system: M14 melanoma
NCI-H226 lung = test system: NCI-H226 lung
SF-268 CNS = test system: SF-268 CNS
SF-295 CNS = test system: SF-295 CNS
SF-539 CNS = test system: SF-539 CNS
SK-MEL-5 melanoma = test system: SK-MEL-5 melanoma
UACC-257 melanoma = test system: UACC-257 melanoma
HS 578T breast = test system: HS 578T breast
RPMI-8226 leukemia = test system: RPMI-8226 leukemia

Structure (SMILES)	TGI (786-0 renal) [µM]	TGI (ACHN renal) [µM]	TGI (COLO 205 colon) [µM]	TGI (EKVX NSCLC) [µM]	TGI (HT29 colon) [µM]	TGI (M14 melanoma) [µM]	TGI (NCI-H226 lung) [µM]	TGI (SF-268 CNS) [µM]	TGI (SF-295 CNS) [µM]	TGI (SF-539 CNS) [µM]	TGI (SK-MEL-5 melanoma) [µM]	TGI (UACC-257 melanoma) [µM]	TGI (HS 578T breast) [µM]	TGI (RPMI-8226 leukemia) [µM]	GI50 (EKVX NSCLC) [µM]	GI50 (HS 578T breast) [µM]	GI50 (RPMI-8226 leukemia) [µM]	GI50 (SF-539 CNS) [µM]	GI50 (SK-MEL-5 melanoma) [µM]	GI50 (UACC-257 melanoma) [µM]
CCOC(=O)CC1=N/C(=N/C(=N)N[N+](=O)[O-])SC1	> 100	> 100	> 100	> 100	> 100	> 100	> 100	> 100	> 100	> 100	> 100	> 100	–	–	–	–	–	–	–	–
O=C1c2ccccc2-c2nnc3c(c21)Cc1ccccc1C3	> 10	> 10	> 10	> 10	> 10	> 10	> 10	> 10	> 10	> 10	> 10	–	> 10	> 10	–	–	–	–	–	–
Nc1ccccc1N	> 100	> 100	> 100	–	> 100	> 100	–	> 100	> 100	> 100	> 100	–	–	> 100	–	–	–	–	–	–
CC1(C)CNC(=O)C2(CCCO2)CNC(C)(C)CNC(=O)C2(CCCO2)CN1 (stereo not given)	> 10	> 10	> 10	–	> 10	> 10	–	> 10	> 10	> 10	> 10	> 10	> 10	> 10	–	–	–	–	–	–
Cc1cccc2cc(/C=C/C(=O)/C=C/c3ccc(Cl)cc3)c(=O)[nH]c12	–	–	–	> 100	–	–	–	–	–	> 100	> 100	> 100	> 100	1.26	> 100	> 100	0.331	> 100	> 100	> 100
COC(=O)c1cc2ccc(O)c(O)c2cn1	19.7	43.6	33.1	38.4	–	34.6	36.8	30.8	33.6	33.5	28.2	29.6	–	> 100	–	–	–	–	–	–
Clc1ccc(/C=C/c2nc(-c3ccccc3)cn3c2nc2ccccc23)cc1Cl	> 100	> 100	> 100	> 100	> 100	> 100	> 100	> 100	–	> 100	> 100	> 100	–	> 100	–	–	–	–	–	–
COC(=O)C(Cc1ccccc1)NC(=O)CSc1nnc(COc2ccc(Cl)cc2)n1-c1ccccc1 (stereo not given)	29.8	30.4	41.8	–	53.2	35.1	> 100	> 100	–	51.3	31.4	26.2	> 100	73.5	–	–	–	–	–	–
C/C=C1/CC(C(=O)OC)N(C(=O)OCc2ccccc2)C1=S (stereo not given)	> 100	> 100	> 100	> 100	> 100	> 100	–	> 100	> 100	–	> 100	> 100	> 100	> 100	–	–	–	–	–	–
CC(=O)OCC1OC(n2c3c(c(-c4ccc(C)cc4)c(C#N)c2=S)C(=O)CC(C)(C)C3)C(OC(C)=O)C(OC(C)=O)C1OC(C)=O (stereo not given)	> 100	> 100	> 100	–	> 100	> 100	61.8	94.9	89	67.2	> 100	38.3	> 100	> 100	–	–	–	–	–	–
COC(=NC(C)C)NC(C)C	> 100	> 100	> 100	> 100	–	> 100	> 100	> 100	–	> 100	> 100	–	> 100	> 100	–	–	–	–	–	–
Cc1nnc2n1N=C(c1cc(F)c(Cl)cc1Cl)/C(=C/c1ccc(-c3ccc([N+](=O)[O-])cc3)o1)S2	> 100	> 100	> 100	> 100	> 100	> 100	–	> 100	> 100	–	> 100	> 100	> 100	> 100	–	–	–	–	–	–
O=C(O)c1cc(CCc2ccc(O)c(O)c2)ccc1O	> 100	> 100	> 100	–	> 100	> 100	> 100	> 100	> 100	> 100	> 100	> 100	> 100	–	–	–	–	–	–	–
COc1ccc2c(-c3csc(-c4c[nH]c5ccc(Br)cc45)n3)c[nH]c2c1	> 100	> 100	> 100	> 100	> 100	> 100	> 100	73.4	> 100	–	> 100	> 100	> 100	> 100	–	–	–	–	–	–
CC(=O)OCC1OC(N2C(=O)[C@@H](Oc3ccccc3)[C@H]2/C=C/c2ccccc2)C(OC(C)=O)C(OC(C)=O)C1OC(C)=O (stereo not given in full)	> 100	> 100	> 100	> 100	> 100	> 100	> 100	> 100	> 100	> 100	> 100	> 100	–	> 100	–	–	–	–	–	–
O=C(O)CN1CCSc2ccccc2CN(CC(=O)O)CCSc2ccccc2C1	> 100	> 100	> 100	> 100	> 100	> 100	–	> 100	> 100	> 100	> 100	> 100	–	> 100	–	–	–	–	–	–
CC(C)[Si](OC12CCC(CC1O)CC2CO)(C(C)C)C(C)C (stereo not given)	22.3	27.2	42.2	–	28.9	28.4	33.6	27.9	24.6	38	47.6	26.6	–	38.1	–	–	–	–	–	–
